The source of these data is ChEMBL document CHEMBL1144019 (Bioorg Med Chem, 2008).

Holding throughout (format): functional
For experiment [1], the system named is Haemophilus influenzae. Put plainly: Antibacterial activity against Haemophilus influenzae ATCC 49766 by standard serial agar dilution method.
In experiment [2] the test system is Escherichia coli. Put plainly: Antibacterial activity against Escherichia coli SR-21003 by standard serial agar dilution method.
Experiment [3] has as its system Pseudomonas aeruginosa. Put plainly: Antibacterial activity against imipenem-resistant Pseudomonas aeruginosa SR-6554 by standard serial agar dilution method. (In general: Agar dilution tests growth on a series of plates holding different concentrations.)
The test system of experiment [4] is Haemophilus influenzae. Put plainly: Antibacterial activity against beta-lactamase negative ampicillin-resistant Haemophilus influenzae SR-11435 by standard serial agar dilution method.
The subject of experiment [5] is Streptococcus pneumoniae. Put plainly: Antibacterial activity against penicillin-resistant Streptococcus pneumoniae SR-16675 by standard serial agar dilution method.
Experiment [6] deals with Enterobacter cloacae. Put plainly: Antibacterial activity against Enterobacter cloacae ATCC 13047 by standard serial agar dilution method.
For experiment [7], the system named is Pseudomonas aeruginosa. Put plainly: Antibacterial activity against Pseudomonas aeruginosa SR24 by standard serial agar dilution method.
In experiment [8] the test system is Staphylococcus aureus. Put plainly: Antibacterial activity against Staphylococcus aureus Smith by standard serial agar dilution method.
For experiment [9], the system named is Pseudomonas aeruginosa. Put plainly: Antibacterial activity against Pseudomonas aeruginosa SR-5393 by standard serial agar dilution method.
Experiment [10] has as its system Escherichia coli. Put plainly: Antibacterial activity against Toho 2 producing Escherichia coli by standard serial agar dilution method.
The test system of experiment [11] is Moraxella catarrhalis. Put plainly: Antibacterial activity against Moraxella catarrhalis ATCC 43617 by standard serial agar dilution method.
In experiment [12] the test system is Enterobacter cloacae. Put plainly: Antibacterial activity against AmpC producing Enterobacter cloacae SR-4321 by standard serial agar dilution method.
Experiment [13] has as its system Pseudomonas aeruginosa. Put plainly: Antibacterial activity against AmpC hyperproducing Pseudomonas aeruginosa SR24-12 by standard serial agar dilution method.

SMILES strings stand for the structures. Values after ≈ are worked out from the molar mass of the structure shown.

As to `COC(=O)NCCn1ccc2c1ccc[n+]2CC1=C(C(=O)[O-])N2C(=O)[C@@H](NC(=O)/C(=N\O[C@@H](C)C(=O)O)c3nc(N)sc3Cl)[C@H]2SC1`, the MIC was found to be 0.032 µg/mL (≈ 0.0453 µM) in [1]; 0.5 µg/mL (≈ 0.707 µM) in experiment [2]; 16 µg/mL (≈ 22.6 µM) in experiment [3]; 0.063 µg/mL (≈ 0.0891 µM) in experiment [4]; 4 µg/mL (≈ 5.66 µM) in [5]; 1 µg/mL (≈ 1.41 µM) in [6]. The MIC in [7] turned out to be 2 µg/mL (≈ 2.83 µM); in [8], 4 µg/mL (≈ 5.66 µM); in experiment [9], 8 µg/mL (≈ 11.3 µM); in experiment [10] it was 4 µg/mL (≈ 5.66 µM); in experiment [11], 0.032 µg/mL (≈ 0.0453 µM); in experiment [12], 4 µg/mL (≈ 5.66 µM). The molecule further displayed an MIC in experiment [13] of 8 µg/mL (≈ 11.3 µM).
Regarding `CNCCn1c(N)nc2c[n+](CC3=C(C(=O)[O-])N4C(=O)[C@@H](NC(=O)/C(=N\O[C@@H](C)C(=O)O)c5nc(N)sc5Cl)[C@H]4SC3)ccc21`, the MIC in [1] is 0.032 µg/mL (≈ 0.0471 µM); in [2] it was 0.25 µg/mL (≈ 0.368 µM); in experiment [3], 8 µg/mL (≈ 11.8 µM); in experiment [4], 0.125 µg/mL (≈ 0.184 µM); in experiment [5], 4 µg/mL (≈ 5.89 µM); in experiment [6], 0.5 µg/mL (≈ 0.736 µM). The MIC in experiment [7] was found to be 1 µg/mL (≈ 1.47 µM); in [8], 16 µg/mL (≈ 23.6 µM); in experiment [9], 2 µg/mL (≈ 2.94 µM); in experiment [10], 1 µg/mL (≈ 1.47 µM); in experiment [11] it was 0.032 µg/mL (≈ 0.0471 µM); in experiment [12] it was 4 µg/mL (≈ 5.89 µM). Further, in experiment [13], the MIC came out at 4 µg/mL (≈ 5.89 µM).
With `C[C@H](O/N=C(\C(=O)N[C@@H]1C(=O)N2C(C(=O)[O-])=C(C[n+]3cccc4[nH]ccc43)CS[C@H]12)c1nc(N)sc1Cl)C(=O)O`, the MIC was 0.016 µg/mL (≈ 0.0264 µM) in [1]; 0.25 µg/mL (≈ 0.413 µM) in experiment [2]; 8 µg/mL (≈ 13.2 µM) in experiment [3]; 0.032 µg/mL (≈ 0.0528 µM) in experiment [4]; 2 µg/mL (≈ 3.3 µM) in experiment [5]; 0.25 µg/mL (≈ 0.413 µM) in experiment [6]. Moreover, the MIC was determined as 1 µg/mL (≈ 1.65 µM) in experiment [7]; 1 µg/mL (≈ 1.65 µM) in experiment [8]; 2 µg/mL (≈ 3.3 µM) in [9]; 1 µg/mL (≈ 1.65 µM) in experiment [10]; 0.016 µg/mL (≈ 0.0264 µM) in [11]; 2 µg/mL (≈ 3.3 µM) in experiment [12]. The same molecule came in with an MIC in experiment [13] of 4 µg/mL (≈ 6.6 µM).
With `C[C@H](O/N=C(\C(=O)N[C@@H]1C(=O)N2C(C(=O)[O-])=C(C[n+]3cccc4c3ccn4CCO)CS[C@H]12)c1nc(N)sc1Cl)C(=O)O`, the MIC in experiment [1] is 0.032 µg/mL (≈ 0.0492 µM); in experiment [2], 0.25 µg/mL (≈ 0.385 µM); in experiment [3] it was 16 µg/mL (≈ 24.6 µM); in experiment [4], 0.063 µg/mL (≈ 0.0969 µM); in [5] it was 4 µg/mL (≈ 6.15 µM); in experiment [6], 0.5 µg/mL (≈ 0.769 µM). Besides, the MIC in experiment [7] came to 1 µg/mL (≈ 1.54 µM); in [8], 2 µg/mL (≈ 3.08 µM); in [9] it was 4 µg/mL (≈ 6.15 µM); in experiment [10], 2 µg/mL (≈ 3.08 µM); in experiment [11], 0.016 µg/mL (≈ 0.0246 µM); in experiment [12], 4 µg/mL (≈ 6.15 µM). The MIC in experiment [13] is 8 µg/mL (≈ 12.3 µM).
For `C[C@H](O/N=C(\C(=O)N[C@@H]1C(=O)N2C(C(=O)[O-])=C(C[n+]3cccc4c3nc(N)n4C3CCNCC3)CS[C@H]12)c1nc(N)sc1Cl)C(=O)O`, the MIC in experiment [1] is 0.016 µg/mL (≈ 0.0227 µM); in experiment [2], 0.25 µg/mL (≈ 0.355 µM); in experiment [3], 4 µg/mL (≈ 5.67 µM); in [4], 0.063 µg/mL (≈ 0.0893 µM); in experiment [5], 2 µg/mL (≈ 2.84 µM); in [6], 0.25 µg/mL (≈ 0.355 µM). Also, the MIC came to 0.5 µg/mL (≈ 0.709 µM) in experiment [7]; 2 µg/mL (≈ 2.84 µM) in experiment [8]; 2 µg/mL (≈ 2.84 µM) in [9]; 2 µg/mL (≈ 2.84 µM) in experiment [10]; 0.016 µg/mL (≈ 0.0227 µM) in experiment [11]; 2 µg/mL (≈ 2.84 µM) in [12]. In experiment [13], this molecule yielded an MIC of 2 µg/mL (≈ 2.84 µM).
With `C[C@H](O/N=C(\C(=O)N[C@@H]1C(=O)N2C(C(=O)[O-])=C(C[n+]3cccc4c3ccn4CCNC(N)=O)CS[C@H]12)c1nc(N)sc1Cl)C(=O)O`, the MIC in experiment [1] turned out to be 0.032 µg/mL (≈ 0.0462 µM); in experiment [2], 0.25 µg/mL (≈ 0.361 µM); in experiment [3], 16 µg/mL (≈ 23.1 µM); in experiment [4], 0.063 µg/mL (≈ 0.091 µM); in [5] it was 4 µg/mL (≈ 5.78 µM); in [6], 0.5 µg/mL (≈ 0.722 µM). In addition, the MIC in [7] turned out to be 1 µg/mL (≈ 1.44 µM); in [8], 4 µg/mL (≈ 5.78 µM); in experiment [9], 4 µg/mL (≈ 5.78 µM); in experiment [10], 2 µg/mL (≈ 2.89 µM); in experiment [11], 0.032 µg/mL (≈ 0.0462 µM); in experiment [12] it was 4 µg/mL (≈ 5.78 µM). Moreover, the MIC in [13] turned out to be 8 µg/mL (≈ 11.6 µM).
Take `C[C@H](N)CCn1c(N)nc2c1ccc[n+]2CC1=C(C(=O)[O-])N2C(=O)[C@@H](NC(=O)/C(=N\O[C@@H](C)C(=O)O)c3nc(N)sc3Cl)[C@H]2SC1`: the MIC in experiment [1] was 0.016 µg/mL (≈ 0.0231 µM); in experiment [2] it was 0.25 µg/mL (≈ 0.361 µM); in [3] it was 8 µg/mL (≈ 11.5 µM); in experiment [4], 0.063 µg/mL (≈ 0.0909 µM); in [5], 2 µg/mL (≈ 2.89 µM); in experiment [6], 0.5 µg/mL (≈ 0.721 µM). In addition, the MIC in experiment [7] was found to be 0.5 µg/mL (≈ 0.721 µM); in [8] it was 2 µg/mL (≈ 2.89 µM); in experiment [9] it was 2 µg/mL (≈ 2.89 µM); in [10] it was 2 µg/mL (≈ 2.89 µM); in [11], 0.008 µg/mL (≈ 0.0115 µM); in experiment [12] it was 2 µg/mL (≈ 2.89 µM). Further, the MIC in experiment [13] came to 4 µg/mL (≈ 5.77 µM).
